In patent US10233201B2, “Class of HDAC inhibitors expands the renal progenitor cells population and improves the rate of recovery from acute kidney injury” (University of Pittsburgh—Of the Commonwealth System of …, priority 2012, dated 2019):

What was measured:
zebrafish larvae = experiment: Phenotypic scoring of edema and survival in zebrafish larvae at 72 hpf; type: in vivo; details: 25 μM PBA, 200 nM TSA
Source text: (§1) PTBA was synthesized as described below. Hydroxyurea and aphidicolin were obtained from Sigma-Aldrich.
Wild type: no visible edema or developmental delay.

[1] = system: renal progenitor cells (lhx1a expression); experiment: In situ hybridization for lhx1a expression in 10-somite embryos (renal progenitor cell expansion); type: in vivo; on lhx1a expansion class, 200 nM: key: effective (+); partially effective (+/−); ineffective (−); Analogs that killed all embryos at a given concentration before reaching 10 somites are listed as XX; on lhx1a expansion class, 400 nM: key: effective (+); partially effective (+/−); ineffective (−); Analogs that killed all embryos at a given concentration before reaching 10 somites are listed as XX; on lhx1a expansion class, 800 nM: key: effective (+); partially effective (+/−); ineffective (−); Analogs that killed all embryos at a given concentration before reaching 10 somites are listed as XX
Procedure: as §1
(§2) In situ hybridization and immunocytochemistry: In situ hybridization was performed as previously described with some modifications. 142 Hybridization temperature was 65° C. Embryos were blocked in 2% blocking reagent (Roche) with 5% sheep serum in MAB (100 mM maleic acid and 150 mM NaCl [pH 7.5]). Whole-mount immunocytochemistry with 1:25 mouse anti-α6F antibody (Developmental Studies Hybridoma Bank) and 1:100 Cy3 secondary antibody (Jackson ImmunoResearch) was performed as described previously. 108 Embryos were embedded in JB-4 for sectioning per the manufacturer's instructions (Polysciences), sectioned at 5 μm, and mounted with Cytoseal 60 (Richard-Allan Scientific).
The remaining PTBA analogs were synthesized.
In situ hybridization for lhx1a was performed as described above. […] Compounds were classified as effective, partially-effective or ineffective based on comparison to the effects of PTBA at a given concentration.
Testing of the compounds is on-going, but for those tested, Table 3 provides first pass EC50s based upon colormetric in situ hybridizations for the Lhx1a mRNA expression levels. After the procedure is run, in situ hybridization is done for the lhx1 mRNA expression and the number of embryos that show an expanded kidney field is manually counted to establish the percent of embryos showing expansion. Then the EC50 is determined by plotting the percent expansion in Excel, graphing the results and using the trendline function to determine the 50 percent point. […] For UPHD-00186, the 4 values for EC50 are shown in Table 3 for the corresponding expression in zebrafish embryos employed an artificial intelligence-based image analysis method termed cognition network technology (CNT) for n=4.

[2] = system: myod1 (somites), fli1a (vasculature), ntla (notochord); experiment: In situ hybridization for mesodermal markers myod1, fli1a, ntla in 10-somite embryos; type: in vivo, zebrafish; details: 25 μM PBA
Procedure: as §1, §2

[3] = system: human HDACs (HeLa cell nuclear extract); experiment: Fluorescence histone deacetylation assay with HeLa cell nuclear extract; type: biochemical; details: 5 mM compound, 10 μg HeLa extract
Procedure: To evaluate this in vitro, the deacetylation of a fluorescent peptide substrate was measured in the presence of human HDACs.
In vitro HDAC activity assays were performed using a fluorescence HDAC assay kit (Active Motif) according to the manufacturer's instructions. For maintaining compound solubility at 5 mM, the final DMSO concentration in all assay wells was increased to 5%. Fluorescence was detected using an M5 Plate Reader ([…])

histone H4 acetylation = experiment: Histone H4 hyperacetylation Western blot in embryos; type: in vivo, zebrafish; details: 24 hpf embryos treated 6 hours; 3 μM PTBA, 25 μM PBA, 200 nM TSA
Procedure: It was next determined whether the HDACi function of PTBA was quantifiable in vivo. 24 hpf embryos were treated with 3 μM PTBA, 25 μM PBA, or 200 nM TSA for 6 hours. Protein extracts were prepared and immunoblotted with an anti-hyperacetylated histone H4 antibody. […] Furthermore, increasing the compound concentration caused a corresponding increase in hyperacetylation (FIG. 21).
SDS-PAGE and Western blotting were performed as described previously with some modifications (Noel, E. S. et al. Organ-specific requirements for Hdac1 in liver and pancreas formation. Dev Biol 322, 237-250, (2008)). Proteins were separated on 18% SDS-PAGE gels. Membranes were incubated at 4° C. overnight with 1:1000 anti-hyperacetylated histone H4 antibody (06-946, Millipore) or 1:1000 anti-α-tubulin antibody (Sigma-Aldrich) in PBT containing 5% nonfat milk.

[4] = system: HDAC activity in DSI9 mouse erythroleukemia cells; details: 5 mM; cited from earlier work
[5] = system: CD1 mice, folic acid-induced injury; experiment: Folic acid-induced AKI; type: in vivo, mouse; details: daily IP 50 mg/ml in 30% PEG300 from 24 hrs after folic acid; after 15 days
Procedure: FIG. 41 are photomicrographs showing the results of an AKI model using folic acid-induced injury. Folic acid is administered to CD1 mice (n=6/group) intraperitoneally (IP) at 250 mg/ml in 0.3M NaHCO3. Compound UPHD-00022 was injected daily IP at […] in 30% PEG300 vehicle starting 24 hrs after folic acid treatment. Kidney tissue was stained using Trichrome and Sirus Red stained after 15 days. Blue in trichrome and the red in sirus red indicates fibrotic (scar) tissue.

[6] = system: mouse models of unilateral ureteral obstruction (UUO); experiment: Unilateral ureteral obstruction (UUO); type: in vivo; details: IP days 0 to 6, kidneys harvested at day 7
Source text: The model of unilateral ureteral obstruction generates progressive renal fibrosis. Surgically created UUO can be experimentally manipulated with respect to timing, severity, and duration, while reversal of the obstruction permits the study of recovery.
FIG. 47 represents the results of the testing of compounds UPHD-00022, UPHD-00025 (PTBA), UPHD-00029, UPHD-00036, and UPHD-00186, for their efficacy in mouse models of unilateral ureteral obstruction (UUO) as follows: in the UUO models, one ureter was ligated for 7 days and compounds were delivered via IP for days 0 to 6. At day 7 kidneys were harvested for Sirius red staining. […] Therefore, in the models tested, the only compound proven to be effective in all models and with significant delayed onset of treatment is UPHD-186.

[7] = lhx1a in situ hybridization, includes repeats* and recounts

Row | SMILES | death (lethality) by 72 hpf (zebrafish larvae; n=90) | larvae with edemic phenotype / pericardial edema at 72 hpf (zebrafish larvae; treated from 2 hpf, 3 μM PTBA) | concentration producing lhx1a expansion consistent with 3 μM PTBA ([1]; 10-somite embryos) | embryos with decreased myod1 expression ([2]; 3 μM PTBA (slightly decreased), 200 nM TSA) | embryos with increased ntla expression ([2]; 3 μM PTBA) | embryos with decreased fli1a expression ([2]; 200 nM TSA) | HDAC activity, % of the control value [3] | histone H4 hyperacetylation (histone H4 acetylation) | HDAC activity, % of the control value [4] | lhx1a expansion class, 200 nM ([1]; 200 nM from 2 hpf) | lhx1a expansion class, 400 nM ([1]; 400 nM from 2 hpf) | lhx1a expansion class, 800 nM ([1]; 800 nM from 2 hpf) | responders at 0.4 µM ([1]; Danio rerio, 400 nM, read-out: embryos with expanded lhx1a expression (% expansion)) | responders at 0.8 µM ([1]; Danio rerio, 800 nM, read-out: embryos with expanded lhx1a expression (% expansion)) | Expansion of Cells, 800 nM [1, 7] | Expansion of Cells, 1.5 μM [1, 7] | Expansion of Cells, 3 μM [1, 7] | renal fibrosis (Trichrome and Sirus Red) [5] | fibrosis (Sirius red) and expression of fibrosis markers in UUO kidney [6]
1 | O=C(O)CCCc1ccccc1 [PBA, 4-phenylbutanoic acid] | 8% | 23% | 25 µM | 57% | 87% | 78% | 30% | hyperacetylation was observed | 19% |  |  |  |  |  |  |  |  |  | 
2 | COC(=O)CCCSc1ccc(OC)cc1 [UPHD-00022, methyl 4-[(4-methoxyphenyl)sulfanyl]butanoate] |  |  |  |  |  |  |  |  |  | − | +/− | + | 29% | 57% | 57% | 91% | 100% | a reduction in fibrosis is seen | reduce both fibrosis and expression of fibrosis markers
